Earlier results on 2 molecules are cited in patent publication US10300068B2, “Method of treating insomnia” (priority 2015, dated 2019).

Data set [1] deals with epicardial coronary arteries. Conditions: patients with coronary artery disease.
The conditions of data set [2]: Day 4, once-daily 40 mg, mild to moderate obstructive sleep apnea, n=26; 90% CI 0.22 to 5.09.
The conditions of data set [3]: patients, assessed by questionnaire.
For data set [4] the following is noted: co-administered with alcohol.
For data set [5], the target named is intestinal P-gp (Homo sapiens, UniProt P08183). Conditions: concomitant administration with digoxin.
Chain of intestinal P-gp (P08183 whole entry): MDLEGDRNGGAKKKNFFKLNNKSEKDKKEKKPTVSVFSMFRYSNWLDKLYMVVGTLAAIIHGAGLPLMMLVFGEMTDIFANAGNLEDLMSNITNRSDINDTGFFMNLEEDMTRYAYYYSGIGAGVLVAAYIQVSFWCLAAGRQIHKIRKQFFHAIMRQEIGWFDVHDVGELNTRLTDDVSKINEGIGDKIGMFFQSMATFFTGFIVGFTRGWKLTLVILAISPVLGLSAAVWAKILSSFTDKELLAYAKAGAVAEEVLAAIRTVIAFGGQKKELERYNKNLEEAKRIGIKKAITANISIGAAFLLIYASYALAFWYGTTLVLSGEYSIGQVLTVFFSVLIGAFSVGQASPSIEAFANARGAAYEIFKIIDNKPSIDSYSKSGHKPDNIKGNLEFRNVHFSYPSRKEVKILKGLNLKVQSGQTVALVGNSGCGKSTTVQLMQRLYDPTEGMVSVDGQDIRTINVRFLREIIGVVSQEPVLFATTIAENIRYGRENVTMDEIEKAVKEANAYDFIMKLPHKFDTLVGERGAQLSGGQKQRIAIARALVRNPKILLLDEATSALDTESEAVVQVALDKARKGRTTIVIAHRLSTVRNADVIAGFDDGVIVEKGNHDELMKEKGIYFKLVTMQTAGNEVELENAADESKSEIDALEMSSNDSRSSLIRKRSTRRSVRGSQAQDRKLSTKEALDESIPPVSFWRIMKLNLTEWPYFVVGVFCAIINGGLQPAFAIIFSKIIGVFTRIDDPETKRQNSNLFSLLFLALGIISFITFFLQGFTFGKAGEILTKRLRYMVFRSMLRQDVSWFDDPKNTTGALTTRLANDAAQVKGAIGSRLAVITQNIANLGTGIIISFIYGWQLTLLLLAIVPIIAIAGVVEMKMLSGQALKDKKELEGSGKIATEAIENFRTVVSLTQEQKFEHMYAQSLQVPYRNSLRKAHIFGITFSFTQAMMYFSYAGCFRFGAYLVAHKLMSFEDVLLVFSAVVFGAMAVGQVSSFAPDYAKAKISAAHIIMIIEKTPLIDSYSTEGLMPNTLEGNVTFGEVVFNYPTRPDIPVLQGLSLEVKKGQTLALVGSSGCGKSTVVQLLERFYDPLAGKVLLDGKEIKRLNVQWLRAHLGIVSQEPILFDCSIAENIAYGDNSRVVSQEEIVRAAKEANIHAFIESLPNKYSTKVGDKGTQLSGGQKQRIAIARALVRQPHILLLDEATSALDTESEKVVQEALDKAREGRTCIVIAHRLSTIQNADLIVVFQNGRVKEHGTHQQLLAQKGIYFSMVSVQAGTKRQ
The conditions of data set [6]: 40 mg non-elderly, 30 mg elderly; mild to moderate COPD, n=25.
The conditions of data set [7]: obese vs non-obese patients, women vs men.
For data set [8] the following is noted: 20 mg, healthy adults.

As for `CCCc1nn(C)c2c(=O)[nH]c(-c3cc(S(=O)(=O)N4CCN(C)CC4)ccc3OCC)nc12` [sildenafil], the “relaxation of epicardial coronary arteries” value in [1] is listed as “relax epicardial coronary arteries”.
`Cc1ccc(-n2nccn2)c(C(=O)N2CCN(c3nc4cc(Cl)ccc4o3)CC[C@H]2C)c1` [BELSOMRA, suvorexant]: in data set [2], the “mean Apnea/Hypopnea Index treatment difference (suvorexant-placebo)” value is 2.7. The suicidal ideation entry in data set [3] was “dose-dependent increase”. In data set [4], the “pharmacokinetics of BELSOMRA” value was “no alteration” and the psychomotor impairment entry is “additive psychomotor impairment”. The “physical dependence with prolonged use” value (completed clinical trials) is listed as “no evidence for physical dependence”. Also, the “withdrawal symptoms after discontinuation” value (human, in vivo) is listed as “no reported withdrawal symptoms”. Besides, in data set [5], the digoxin levels entry was “slightly increased”. Further, the “respiratory depressant effects as measured by oxygen saturation” value in [6] is on record as “no respiratory depressant effects”. The exposure result in data set [7] is “increased”. The driving ability entry in data set [8] is given as “impaired in some individuals”.
